{"source": "ChEMBL document CHEMBL5131392", "about": "“A novel ICG-labeled cyclic TMTP1 peptide dimer for sensitive tumor imaging and enhanced photothermal therapy in vivo” (Eur J Med Chem, 2022)", "key": {"4T1 [1]": {"tested_on": "4T1", "assay": "Antitumor activity in mouse 4T1 cells allografted in BALB/c mouse assessed as increase in temperature of tumor site at 100 uM, iv measured after 12 hrs followed by 2.5 W/cm2 NIR laser irradiation for 3 mins by infrared thermal imaging analysis", "format": "functional"}, "[2]": {"assay": "Drug uptake in tumor of mouse 4T1 cells allografted in BALB/c mouse assessed as increase in fluorescence signal at 30 uM, iv measured after 12 hrs by NIR fluorescence imaging analysis", "format": "ADME, organism-based, Neoplasm", "details": "in vivo"}, "4T1 [3]": {"tested_on": "4T1", "assay": "Induction of apoptosis in mouse 4T1 cells allografted in BALB/c mouse assessed as increase in total apoptotic cells at 100 uM, iv measured after 12 hrs followed by 2.5 W/cm2 NIR laser irradiation for 3 mins by TUNEL staining based analysis", "format": "functional, organism-based"}, "4T1 [4]": {"tested_on": "4T1", "assay": "Cytotoxicity against mouse 4T1 cells assessed as cell viability at higher concentration incubated for 24 hrs by CCK-8 assay relative to control", "format": "functional"}, "4T1 [5]": {"tested_on": "4T1", "assay": "Induction of apoptosis in mouse 4T1 cells allografted in BALB/c mouse assessed as increase in total necrotic cells at 100 uM, iv measured after 12 hrs followed by 2.5 W/cm2 NIR laser irradiation for 3 mins by hematoxylin and eosin staining based analysis", "format": "functional, organism-based"}, "4T1 [6]": {"tested_on": "4T1", "assay": "Induction of apoptosis in mouse 4T1 cells allografted in BALB/c mouse assessed as increase in total apoptotic cells at 100 uM, iv measured after 12 hrs followed by 2.5 W/cm2 NIR laser irradiation for 3 mins by hematoxylin and eosin staining based analysis", "format": "functional, organism-based"}, "[7]": {"assay": "AUC 0 to t in Sprague-Dawley rat at 100 uM, iv measured up to 24 hrs by IVIS spectrum imaging analysis", "format": "ADME, organism-based", "design": "time < 24 hrs, dose 100 µM, route iv", "details": "in vivo"}, "4T1 [8]": {"tested_on": "4T1", "assay": "Upregulation of XPNPEP expression in mouse 4T1 cells by Western blot analysis", "format": "functional, cell-based"}, "[9]": {"assay": "Cmax in Sprague-Dawley rat at 100 uM, iv measured up to 24 hrs by IVIS spectrum imaging analysis", "format": "ADME, organism-based", "design": "time < 24 hrs, dose 100 µM, route iv", "details": "in vivo"}, "[10]": {"assay": "Toxicity in BALB/c mouse allografted with mouse 4T1 cells assessed as histopathological change in spleen at 100 uM, iv measured after 12 hrs followed by 2.5 W/cm2 NIR laser irradiation for 3 mins by hematoxylin and eosin staining based analysis", "format": "organism-based", "details": "in vivo"}, "[11]": {"assay": "MRT 0 to t in Sprague-Dawley rat at 100 uM, iv measured up to 24 hrs by IVIS spectrum imaging analysis", "format": "ADME, organism-based", "details": "in vivo"}, "4T1 [12]": {"tested_on": "4T1", "assay": "Antitumor activity against mouse 4T1 cells allografted in BALB/c mouse assessed as inhibition of tumor growth at 100 uM, iv treated for 12 hrs followed by 2.5 W/cm2 NIR laser irradiation for 3 mins and measured every 2 days", "format": "functional, organism-based", "details": "time 2.0 day"}, "[13]": {"assay": "Drug uptake in tumor of mouse 4T1 cells allografted in BALB/c mouse assessed as increase in fluorescence signal at 30 uM, iv measured after 12 to 48 hrs by IVIS spectrum in vivo imaging analysis", "format": "ADME, organism-based, Neoplasm", "details": "time 12-48 hrs"}, "[14]": {"assay": "Toxicity in BALB/c mouse allografted with mouse 4T1 cells assessed as histopathological change in lung at 100 uM, iv measured after 12 hrs followed by 2.5 W/cm2 NIR laser irradiation for 3 mins by hematoxylin and eosin staining based analysis", "format": "organism-based", "details": "in vivo"}, "[15]": {"assay": "Half life in Sprague-Dawley rat at 100 uM, iv measured up to 24 hrs by IVIS spectrum imaging analysis", "format": "ADME, organism-based", "details": "in vivo"}, "[16]": {"assay": "Drug uptake in mouse 4T1 cells assessed as increase in fluorescence signal measured after 1 hr by flow cytometry analysis", "format": "ADME, cell-based", "details": "4t1, 1 h"}, "[17]": {"assay": "Toxicity in BALB/c mouse allografted with mouse 4T1 cells assessed as histopathological change in liver at 100 uM, iv measured after 12 hrs followed by 2.5 W/cm2 NIR laser irradiation for 3 mins by hematoxylin and eosin staining based analysis", "format": "organism-based", "details": "in vivo"}, "[18]": {"assay": "Toxicity in BALB/c mouse allografted with mouse 4T1 cells assessed as histopathological change in heart at 100 uM, iv measured after 12 hrs followed by 2.5 W/cm2 NIR laser irradiation for 3 mins by hematoxylin and eosin staining based analysis", "format": "organism-based", "details": "in vivo"}, "[19]": {"assay": "Biodistribution in BALB/c mouse assessed as increase in fluorescence signal at 30 uM, iv measured after 30 mins by NIR fluorescence imaging analysis", "format": "ADME, organism-based", "details": "in vivo, 0.5 h"}, "[20]": {"assay": "Toxicity in BALB/c mouse allografted with mouse 4T1 cells assessed as histopathological change in kidney at 100 uM, iv measured after 12 hrs followed by 2.5 W/cm2 NIR laser irradiation for 3 mins by hematoxylin and eosin staining based analysis", "format": "organism-based", "details": "in vivo"}, "[21]": {"assay": "Drug uptake in lymph node of mouse 4T1 cells allografted in BALB/c mouse assessed as increase in ratio of fluorescence signal in tumor lymph node to normal lymph node at 30 uM, iv measured up to 48 hrs by NIR fluorescence imaging analysis", "format": "ADME, organism-based", "details": "in vivo"}, "[22]": {"assay": "Drug accumulation in BALB/c mouse liver assessed as increase in fluorescence intensity at 30 uM, iv measured after 30 mins by NIR fluorescence imaging analysis", "format": "ADME, organism-based", "details": "in vivo, 0.5 h"}, "[23]": {"assay": "Drug uptake in tumor of mouse 4T1 cells allografted in BALB/c mouse assessed as increase in ratio of fluorescence signal in tumor to normal tissue at 30 uM, iv measured after 12 to 48 hrs by NIR fluorescence imaging analysis", "format": "ADME, organism-based, Neoplasm", "details": "in vivo, time 12-48 hrs"}, "[24]": {"assay": "Drug accumulation in BALB/c mouse kidney assessed as increase in fluorescence intensity at 30 uM, iv measured after 2 hrs by NIR fluorescence imaging analysis", "format": "ADME, organism-based", "details": "in vivo"}, "[25]": {"assay": "Toxicity in BALB/c mouse allografted with mouse 4T1 cells assessed as change in body weight at 100 uM, iv treated for 12 hrs followed by 2.5 W/cm2 NIR laser irradiation for 3 mins and measured every 2 days", "format": "organism-based", "details": "in vivo, 48 h, time 2 day"}, "[26]": {"assay": "Drug uptake in tumor of mouse 4T1 cells allografted in BALB/c mouse assessed as XPNPEP2 expression by […] based analysis", "format": "ADME, Neoplasm"}, "[27]": {"assay": "Drug uptake in lymph node of mouse 4T1 cells allografted in BALB/c mouse assessed as increase in fluorescence signal at 30 uM, iv measured after 24 to 48 hrs by NIR fluorescence imaging analysis", "format": "ADME, organism-based", "details": "in vivo, time 24-48 hrs"}}, "note": "Calls of active or inactive are those of the source. No cut-off for these calls is given here. Bridge positions count the residues as written; N and C are the ends. Square brackets hold non-standard residues; d marks the D form. Peptide text beside a SMILES is read from it. I, II: the chains in the order shown. * marks the point of attachment. X1 = CC1(C)C(/C=C/C=C/C=C/C=C2/N(CCCCCC(=O)*)c3ccc4ccccc4c3C2(C)C)=[N+](CCCCS(=O)(=O)[O-])c2ccc3ccccc3c21; PEG4 = NCCOCCOCCOCCOCCC(=O)O"}
{"smiles": "CC(C)[C@@H]1NC(=O)[C@H](CC(N)=O)NC(=O)CNC(=O)[C@@H](NC(=O)CNC(=O)CCOCCOCCOCCOCCNC(=O)CC[C@H](NC(=O)CCCCCN2/C(=C/C=C/C=C/C=C/C3=[N+](CCCCS(=O)(=O)[O-])c4ccc5ccccc5c4C3(C)C)C(C)(C)c3c2ccc2ccccc32)C(=O)NCCOCCOCCOCCOCCC(=O)NCC(=O)N[C@H]2CSSC[C@@H](C(=O)O)NC(=O)CNC(=O)[C@H](CCC(N)=O)NC(=O)[C@H](CCCNC(=N)N)NC(=O)[C@H](C(C)C)NC(=O)[C@H](C(C)C)NC(=O)[C@H](CC(N)=O)NC(=O)CNC2=O)CSSC[C@@H](C(=O)O)NC(=O)CNC(=O)[C@H](CCC(N)=O)NC(=O)[C@H](CCCNC(=N)N)NC(=O)[C@H](C(C)C)NC1=O", "note": "(I: X1-E[PEG4]GCGNVVRQGC-OH / II: [PEG4]GCGNVVRQGC-OH; amide I:1-II:N; disulfide I:4-I:12, II:3-II:11)", "values": [{"measurement": "T", "setting": "4T1 [1]", "value": 51, "unit": "°C"}, {"measurement": "Drug uptake", "setting": "[2]", "value": "Active"}, {"measurement": "Activity", "setting": "4T1 [3]", "value": "Active"}, {"measurement": "cell viability", "setting": "4T1 [4]", "value": ">90", "unit": "%"}, {"measurement": "Activity", "setting": "4T1 [5]", "value": "Active"}, {"measurement": "Activity", "setting": "4T1 [6]", "value": "Active"}, {"measurement": "AUC(0-t) at 24 h, 100 µM", "setting": "[7]", "value": 1.29, "unit": "µM·h"}, {"measurement": "Activity", "setting": "4T1 [8]", "value": "Active"}, {"measurement": "Cmax at 100 µM", "setting": "[9]", "value": 212, "unit": "nM"}, {"measurement": "Activity", "setting": "[10]", "value": "Non-Toxic"}, {"measurement": "MRT last at 24 h, 100 µM", "setting": "[11]", "value": 5.77, "unit": "h"}, {"measurement": "Activity", "setting": "4T1 [12]", "value": "Active"}, {"measurement": "Drug uptake", "setting": "[13]", "value": "Active"}, {"measurement": "Activity", "setting": "[14]", "value": "Non-Toxic"}, {"measurement": "half-life at 100 µM", "setting": "[15]", "value": 5.9, "unit": "h"}, {"measurement": "Drug uptake", "setting": "[16]", "value": "Active"}, {"measurement": "Activity", "setting": "[17]", "value": "Non-Toxic"}, {"measurement": "Activity", "setting": "[18]", "value": "Non-Toxic"}, {"measurement": "Drug uptake", "setting": "[19]", "value": "Active"}, {"measurement": "Activity", "setting": "[20]", "value": "Non-Toxic"}, {"measurement": "Drug uptake", "setting": "[21]", "value": "Active"}, {"measurement": "Drug uptake", "setting": "[22]", "value": "Active"}, {"measurement": "T/C", "setting": "[23]", "value": 40}, {"measurement": "Drug uptake", "setting": "[24]", "value": "Active"}, {"measurement": "Activity", "setting": "[25]", "value": "Non-Toxic"}, {"measurement": "Drug uptake", "setting": "[26]", "value": "Active"}, {"measurement": "Drug uptake", "setting": "[27]", "value": "Active"}]}
{"smiles": "CC(C)[C@@H]1NC(=O)[C@H](CC(N)=O)NC(=O)CNC(=O)[C@@H](NC(=O)CNC(=O)CCOCCOCCOCCOCCNC(=O)CCCCCN2/C(=C/C=C/C=C/C=C/C3=[N+](CCCCS(=O)(=O)[O-])c4ccc5ccccc5c4C3(C)C)C(C)(C)c3c2ccc2ccccc32)CSSC[C@@H](C(=O)O)NC(=O)CNC(=O)[C@H](CCC(N)=O)NC(=O)[C@H](CCCNC(=N)N)NC(=O)[C@H](C(C)C)NC1=O", "note": "({X1-PEG4}-GCGNVVRQGC-OH; disulfide 2-10)", "values": [{"measurement": "T", "setting": "4T1 [1]", "value": 47, "unit": "°C"}, {"measurement": "Activity", "setting": "4T1 [12]", "value": "Active"}, {"measurement": "Drug uptake", "setting": "[13]", "value": "Active"}]}
{"smiles": "CC1(C)C(/C=C/C=C/C=C/C=C2\\N(CCCCS(=O)(=O)[O-])c3ccc4ccccc4c3C2(C)C)=[N+](CCCCS(=O)(=O)[O-])c2ccc3ccccc3c21.[Na+]", "note": "[INDOCYANINE GREEN]", "values": [{"measurement": "T", "setting": "4T1 [1]", "value": 40, "unit": "°C"}, {"measurement": "AUC(0-t) at 24 h, 100 µM", "setting": "[7]", "value": 0.0175, "unit": "µM·h"}, {"measurement": "Cmax at 100 µM", "setting": "[9]", "value": 57.6, "unit": "nM"}, {"measurement": "MRT last at 24 h, 100 µM", "setting": "[11]", "value": 0.251, "unit": "h"}, {"measurement": "half-life at 100 µM", "setting": "[15]", "value": 0.4, "unit": "h"}]}
